How the values were obtained:
[1] = human, in vivo; cited from earlier work
[2] = tested on: advanced soft tissue sarcoma; assay: Phase II trial of gemcitabine and docetaxel with bevacizumab, volumetric tumor response; type: in vivo, human
Method: Patients with metastatic or locally-recurrent leiomyosarcoma, pleomorphic undifferentiated sarcoma, pleomorphic liposarcoma, rhabdomyosarcoma or angiosarcoma, were treated on a phase II trial of gemcitabine, docetaxel and bevacizumab. Initially the trial was a double-blind, placebo-controlled, randomized trial of gemcitabine and docetaxel with or without bevacizumab, which was modified to a single-arm, open-label, non-randomized study of gemcitabine, docetaxel and bevacizumab. The protocol was approved by the Institutional Review Board of Memorial-Sloan Kettering Cancer Center, and all patients provided written informed consent (Clinicaltrials.gov identifier NCT00887809).
Initially, gemcitabine was administered immediately following bevacizumab.
Volumetric measurement of tumors was performed on an exploratory basis as the original study was not designed or powered to specifically investigate the clinical application of timed anti-angiogenic therapy as a method of tumor chemosensitization. In light of the results from our animal studies, which were made part way through the clinical study period, volumetric measurements were proposed to more ideally facilitate comparison with our pre-clinical data. Furthermore, they likely provide a more meaningful assessment of tumor response than the RECIST based evaluation for soft tissue sarcoma. […] Baseline CT or MRI was used to identify a dominant target lesion for measurement. Follow-up scans were evaluated for best response. Tumor contours were defined manually and summed across all axial slices to calculate a total volume measurement. Tumor response was defined as at least a 30% reduction in tumor volume. Both a two-tailed Fisher's Exact Test and the Mann-Whitney Rank-Sum test were employed to evaluate significance in patient volumetric response rates at the first interval treatment scan (week 6) and at time of maximum treatment response.
Patients enrolled in the trial had metastatic or recurrent leiomyosarcoma, pleomorphic undifferentiated sarcoma, pleomorphic liposarcoma, rhabdomyosarcoma or angiosarcoma (FIG. 7A).
A total of 38 patients were treated. A subset of patients received placebo instead of bevacizumab. […] Baseline CT scan or MRI was used to identify a dominant target lesion for volumetric measurement, followed by volumetric assessment on initial post-treatment follow-up scan ([…]) and over the treatment course (representative CT time course of abdominal metastasis is shown in FIG. 7B showing regression of metastatic tumor).

[3] = tested on: MCA/129 fibrosarcoma tumors; assay: IVIM MRI of vascular perfusion in MCA/129 fibrosarcoma tumors; type: in vivo, mouse; conditions: gemcitabine 240 mg/kg i.p.
Description: IVIM DW-MRI was first described by Le Bihan et al. (MR imaging of intravoxel incoherent motions: application to diffusion and perfusion in neurologic disorders. Radiology 1986; 161: 401-407). The novelty of our approach lies in repeatedly acquiring IVIM data over time (e.g. “dynamic” IVIM) to monitor the acute effects of radiation (or chemotherapy), a strategy which has not been previously reported. No intravenous contrast administration is required, and IVIM parameters can be measured many times, allowing us to define kinetics of vascular dysfunction after radiation or chemotherapy. Other alternatives, such as DCE-MRI or ^15O-PET, would not serve our purpose as well: although they may be highly reflective of tissue vascularity they cannot be re-injected into a patient to serially monitor changes in vascularity over time. IVIM parameters including perfusion fraction (f), pseudo-diffusion coefficient (D*) and diffusion coefficient (D) were calculated for each lesion, using a biexponential signal decay model and incorporating a correction to account for differences in the T1 and T2 relaxation times of tissue and blood, respectively.
Briefly, MCA/129 fibrosarcoma tumors were implanted in the rear mouse hip, and subjected to intravoxel incoherent motion (IVIM) MRI when tumors reached a size of 150-300 mm^3. […] Data (mean±SEM) are collated from 6 animals per group.

MCA/129 fibrosarcomas = assay: Endothelial apoptosis in vivo (TUNEL/MECA-32) in MCA/129 fibrosarcomas; set-up: species or system mice; conditions: gemcitabine 240 mg/kg
Method: Human HCT-116 colon cancer cells and MCA/129 murine sarcoma cells were maintained in DMEM with 10% fetal bovine serum, with 100 u/ml penicillin and 100 μg/ml streptomycin. Cells were grown as monolayers in 75 cm^2 culture flasks at 37° C. in 10% CO2 humidified incubators. Cells were trypsinized, washed in PBS and diluted in Matrigel/PBS solution (40:60 v/v) for HCT-116 xenografts or in PBS for MCA/129 syngeneic tumor grafts. Cells (3×10^6 for HCT-116 or 1×10^6 for MCA129) were injected subcutaneously into the flanks of mice (Garcia-Barros et al. Science 300, 1155-1159, 2003).
To evaluate acute endothelial apoptosis, tumors were grown in mice and treated with drugs as above. After the first treatment, tumors were harvested at specified times, placed into formalin overnight and paraffin-embedded the next day. Paraffin-embedded sections (5 μm) were co-stained for apoptotic endothelium using TUNEL and the endothelial-specific monoclonal antibody MECA-32 (Developmental Studies Hybridoma Bank, developed under the auspices of the NICHD and maintained by The University of Iowa, IA).
Similar results were observed using MCA/129 murine fibrosarcoma tumors implanted in Sv129/Bl6^asmase+/+ mice. […] After 4 hours of treatment, tumors were harvested and endothelial cell apoptosis quantified.

ASMase = ASMase activity radioenzymatic assay in BAEC; type: cell-based, bovine
Method: BAEC were established from the intima of bovine aorta as described^1. Stock cultures were grown in 100-mm dishes in Dulbecco's modified Eagle's medium (DMEM) supplemented with glucose (1 g/liter), 5% heat-inactivated calf serum (CS), penicillin (50 units/ml), and streptomycin (50 μg/ml). Purified human recombinant bFGF (1 ng/ml; R&D Systems, Inc., Minneapolis, MN) was added every other day during the exponential growth phase. […] These plateau phase cells were either used for experiments, or further sub-cultured (up to a maximum of 10 times) at a split ratio of 1:8. For sub-culturing, monolayers were dissociated with STV (0.05% trypsin and 0.02% EDTA in PBS) for 2-3 min at 22° C., washed twice in 5% CS-DMEM, and resuspended in DMEM with supplements as above. These mild conditions of trypsinization were sufficient to detach cells but not injure, stimulate, or affect cell function in a detectable way. BAEC were maintained at 37° C. in 10% CO2 humidified incubators.
ASMase activity was quantified by radioenzymatic assay using [^14C-methylcholine]sphingomyelin (Amersham) as substrate as described (Schissel et al. J Biol Chem, 271, 18431-18436, 1996). Cell lysates were incubated with [^14C-methylcholine]-sphingomyelin substrate (0.026 mCi/9.5 nmol) in 250 mM sodium acetate, pH 5.0 supplemented with 0.1% Triton X-100 and 1 mM EDTA or 0.1 mM ZnCl. Reactions were terminated after 1 h with CHCl3:MeOH:1N HCl (100:100:1, v/v/v), and [^14C-methylcholine]phosphocholine product in the aqueous layer of the Folch extract was quantified using a Beckman Packard 2200 CA Tricarb scintillation counter. For detection of ASMase activity in patients, 10 μl of serum was used.
To test the effect of chemotherapy on ASMase signaling and ceramide production, BAEC were treated with paclitaxel (100 nM) and ASMase activity was determined by radioenzymatic assay (Rotolo et al, infra) using [^14C-methylcholine] sphingomyelin (Amersham) as substrate (FIG. 1A). Induction of ASMase activity was observed within 5 minutes after treatment, and the activation continued for 30 minutes. Ceramide generation was monitored using the diacylglycerol kinase assay (Stancevic et al. PLoS ONE 8, e69025, 2013). […] In further support of this, pre-incubation of BAEC with nystatin prior to treatment with chemotherapy inhibits chemotherapy-induced apoptosis (FIG. 3).
To determine the generality of the results observed, experiments were carried out using an additional endothelial cell line, human coronary artery endothelial cells (HCAEC); experiments were also performed using a different chemotherapeutic agent. […] Next, HCAEC were treated with paclitaxel (100 nM) (data not shown) and etoposide (50 μM) (FIG. 1F), and ceramide generation was evaluated.
To further establish the generality of ASMase activation by various chemotherapeutic agents, BAEC and HCAEC were treated with increasing doses of cisplatin (0.1-50 μM) (data not shown). […] The ASMase/ceramide pathway was activated by chemotherapeutic agents that belong to different classes of chemotherapeutic agents, such as: taxanes, topoisomerase inhibitors, and nucleoside analog metabolic inhibitors. Since such chemotherapy agents are characterized by distinct mechanisms of action in tumor cells, it is surprising that a group of such distinct agents converges on a common molecular (ASMase/ceramide) axis in endothelium. The present confirmation that distinct chemotherapeutic agents activate the ASMase/ceramide pathway permits the present inventors to take into account the results of experiments using single dose radiotherapy, which has been reported to activate the same pathway (Rao, S. S. et al., Axitinib sensitization of high Single Dose Radiotherapy. Radiotherapy and Oncology: Journal of the European Society for Therapeutic Radiology and Oncology 111, 88-93, doi:10.1016/j.radonc.2014.02.010 (2014)).
Gemcitabine was able to activate ASMase in cultured endothelial cells. […]

Row | Dose dependence of ASMase activation (ASMase; increasing doses of gemcitabine, 5 minutes) | Compound | Half-life (t1/2) [1] | Patients with >30% tumor reduction, initial follow-up scan ([2]; after two 3-week cycles, bevacizumab-gemcitabine 1-hour interval, 14 patients) | Patients with significant tumor response (≥30% reduction in tumor volume), initial follow-up scan ([2]; after two 3-week cycles, immediate consecutive bevacizumab-gemcitabine, 16 patients) | Patients with significant tumor response, best response ([2]; bevacizumab 15 mg/kg 1 hour prior to gemcitabine, docetaxel day 8, 14 patients) | Patients with significant tumor response (>30% reduction in tumor volume), best response ([2]; bevacizumab 15 mg/kg immediately before gemcitabine, docetaxel day 8, 16 patients) | Time of peak vascularity and diffusion reduction after treatment [3] | Diffusion (D*) ([3]; over 1 hour) | Vascularity (Fp) ([3]; over 1 hour) | Endothelial cell apoptosis (MCA/129 fibrosarcomas; Sv129/BL6 asmase+/+) | Tumor cell apoptosis (MCA/129 fibrosarcomas) | ASMase activation (ASMase; etoposide 50 μM, cisplatin 0.1-50 μM, gemcitabine 100 nM time-course)
1 | – | bevacizumab: monoclonal antibody that targets circulating VEGF A, long-acting AAA | 21 days | 64% | 25% | 93% | 38% | – | – | – | – | – | –
2 | dose-dependent manner | Nc1ccn([C@@H]2O[C@H](CO)[C@@H](O)C2(F)F)c(=O)n1 [gemcitabine] | – | – | – | – | – | 15 to 30 min | reduced in a reversible manner | reduced in a reversible manner | induced time-dependent endothelial cell apoptosis | did not cause tumor cell apoptosis | triggered rapid cellular activation of ASMase
